Experimental data from ChEMBL document CHEMBL1201862, “PubChem BioAssay data set” (2004).
Active and inactive are the calls of the source.

Experiments:
[1] = bead-based luminescence quenchers, dual-tagged ARNT – biochemical, AlphaScreen, cherry-pick, artefact control for ARNT-TACC3 interaction inhibitor project, dose response (AID 651705); type: functional;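 also: AlphaScreen bead proximity signal that flags compounds interfering with the detection technology; potency reflects signal decrease which marks the compound as an assay artifact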
[2] = target: T1, Corticotropin-releasing factor receptor 2/Corticotropin-releasing factor-binding protein (Homo sapiens, UniProt P24387+Q13324); experiment: activators of CRF receptor 2 with binding protein – uHTS hits, confirmation (AID 602473); type: functional; details: read-out: EC50_Mean
T1 sequence (Q13324 whole entry): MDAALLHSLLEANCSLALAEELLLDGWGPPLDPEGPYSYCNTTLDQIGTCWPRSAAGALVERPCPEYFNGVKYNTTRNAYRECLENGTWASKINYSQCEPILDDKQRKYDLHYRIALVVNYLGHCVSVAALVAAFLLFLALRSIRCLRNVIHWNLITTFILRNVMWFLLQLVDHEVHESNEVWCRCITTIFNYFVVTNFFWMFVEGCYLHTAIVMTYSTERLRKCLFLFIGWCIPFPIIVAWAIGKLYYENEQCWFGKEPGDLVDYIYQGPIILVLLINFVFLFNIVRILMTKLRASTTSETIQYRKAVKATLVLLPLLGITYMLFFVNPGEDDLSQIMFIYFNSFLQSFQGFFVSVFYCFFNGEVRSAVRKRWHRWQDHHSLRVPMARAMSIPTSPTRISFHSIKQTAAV
T1 sequence (P24387 whole entry): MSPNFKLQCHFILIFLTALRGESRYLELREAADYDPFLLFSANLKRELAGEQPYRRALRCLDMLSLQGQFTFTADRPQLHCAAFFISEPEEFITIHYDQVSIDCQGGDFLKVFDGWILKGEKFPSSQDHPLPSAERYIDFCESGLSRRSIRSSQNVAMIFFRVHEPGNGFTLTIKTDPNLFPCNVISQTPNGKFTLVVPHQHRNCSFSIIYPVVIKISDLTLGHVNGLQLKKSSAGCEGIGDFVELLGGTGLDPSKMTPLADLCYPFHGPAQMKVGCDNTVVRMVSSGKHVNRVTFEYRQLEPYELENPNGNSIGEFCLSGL

[3] = target: T1, Corticotropin-releasing factor receptor 2/Corticotropin-releasing factor-binding protein; experiment: Dose Response confirmation of uHTS hits for small molecule antagonists of the CRF-binding protein and CRF-R2 receptor complex.; type: functional; details: read-out: IC50_Mean
[4] = Luminescence Cell-Based Dose Retest to Confirm Inhibitors of Cancer Stem Cells. [Related pubchem assays (depositor defined):AID2717, AID2721]; type: functional; details: Homo sapiens
[5] = blockers of CRF-binding protein–CRF-R2 complex – cell-based, uHTS hits, 384-well, dose response (AID 651639); type: functional, Homo sapiens; details: read-out: IC50_Mean
[6] = target: T2, Low molecular weight phosphotyrosine protein phosphatase (Homo sapiens, UniProt P24666); type: functional; details: read-out: IC50_Mean
T2 sequence (P24666 whole entry): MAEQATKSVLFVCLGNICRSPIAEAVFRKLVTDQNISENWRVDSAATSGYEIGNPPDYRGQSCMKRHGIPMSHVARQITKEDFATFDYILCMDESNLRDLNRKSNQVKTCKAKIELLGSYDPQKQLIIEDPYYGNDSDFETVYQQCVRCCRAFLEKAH

[7] = target: T2, Low molecular weight phosphotyrosine protein phosphatase; type: functional; details: read-out: IC50_Mean; remark: listed apart in the source
[8] = target: Nonstructural protein 1 (Influenza A virus, UniProt Q194T2); type: functional, Influenza A virus (A/California/07/2009(H1N1))
Chain of Nonstructural protein 1 (Q194T2 whole entry): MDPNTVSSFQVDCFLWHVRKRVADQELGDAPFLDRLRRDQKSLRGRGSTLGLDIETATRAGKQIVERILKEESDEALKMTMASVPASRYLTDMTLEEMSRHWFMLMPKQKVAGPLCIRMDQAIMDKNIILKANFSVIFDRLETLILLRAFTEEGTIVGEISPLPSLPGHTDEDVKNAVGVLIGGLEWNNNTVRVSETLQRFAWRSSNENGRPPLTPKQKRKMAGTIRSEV

[9] = system: HEK293; experiment: optical interference in Abeta FP readout, dose response, artefact control for IDE activator project, biochemical, fluorescence polarization (AID 588442); type: functional, cell-based; details: Homo sapiens
[10] = system: HEK293; experiment: membrane integrity loss in HEK cells – cell-based, fluorescence, cytotoxicity control for IDE activator project, dose response (AID 588440); type: functional; details: Homo sapiens;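 also: cytotoxicity by LDH release measuring loss of membrane integrity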
[11] = target: T3, Insulin-degrading enzyme (Homo sapiens, UniProt P14735); experiment: cellular IDE activation of Abeta substrate cleavage – fluorescence polarization, HEK cells, dose response (AID 588439); type: functional, cell-based
T3 sequence (P14735 whole entry): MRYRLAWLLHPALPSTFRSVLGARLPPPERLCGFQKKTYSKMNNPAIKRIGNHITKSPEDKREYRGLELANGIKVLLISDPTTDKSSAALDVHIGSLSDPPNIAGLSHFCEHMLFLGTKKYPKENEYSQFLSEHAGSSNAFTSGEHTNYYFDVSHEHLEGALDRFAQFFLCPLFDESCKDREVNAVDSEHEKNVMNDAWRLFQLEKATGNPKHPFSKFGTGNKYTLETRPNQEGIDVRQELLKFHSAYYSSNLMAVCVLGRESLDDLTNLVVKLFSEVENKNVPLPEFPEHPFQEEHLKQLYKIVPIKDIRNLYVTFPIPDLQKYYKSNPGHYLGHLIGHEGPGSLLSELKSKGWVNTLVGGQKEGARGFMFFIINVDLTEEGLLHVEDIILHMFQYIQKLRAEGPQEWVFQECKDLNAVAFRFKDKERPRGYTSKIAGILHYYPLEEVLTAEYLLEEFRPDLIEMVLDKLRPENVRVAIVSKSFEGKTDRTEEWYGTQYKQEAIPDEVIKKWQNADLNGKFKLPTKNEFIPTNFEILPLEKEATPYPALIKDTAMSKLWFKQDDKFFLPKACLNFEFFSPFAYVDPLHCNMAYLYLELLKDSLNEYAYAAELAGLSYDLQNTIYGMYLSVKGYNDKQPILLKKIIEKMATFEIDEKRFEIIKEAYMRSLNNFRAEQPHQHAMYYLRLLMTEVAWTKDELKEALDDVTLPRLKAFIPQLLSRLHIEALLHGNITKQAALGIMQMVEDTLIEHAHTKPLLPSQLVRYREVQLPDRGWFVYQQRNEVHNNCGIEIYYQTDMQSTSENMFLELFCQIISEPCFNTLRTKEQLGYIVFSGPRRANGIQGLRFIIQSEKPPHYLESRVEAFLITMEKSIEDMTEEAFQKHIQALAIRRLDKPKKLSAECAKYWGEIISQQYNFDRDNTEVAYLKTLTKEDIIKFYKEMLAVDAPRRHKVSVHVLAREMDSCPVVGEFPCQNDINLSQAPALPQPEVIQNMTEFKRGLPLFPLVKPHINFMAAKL

[12] = target: T3, Insulin-degrading enzyme; experiment: recombinant IDE activation, cell-free – biochemical, fluorescence polarization, counter-screen for IDE activator project, dose response (AID 588681)
[13] = target: Cytochrome P450 2D6 (Homo sapiens, UniProt P10635);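 also: CYP2D6 member of a cytochrome P450 panel assay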
Chain of Cytochrome P450 2D6 (P10635 whole entry, the tested form may be a part): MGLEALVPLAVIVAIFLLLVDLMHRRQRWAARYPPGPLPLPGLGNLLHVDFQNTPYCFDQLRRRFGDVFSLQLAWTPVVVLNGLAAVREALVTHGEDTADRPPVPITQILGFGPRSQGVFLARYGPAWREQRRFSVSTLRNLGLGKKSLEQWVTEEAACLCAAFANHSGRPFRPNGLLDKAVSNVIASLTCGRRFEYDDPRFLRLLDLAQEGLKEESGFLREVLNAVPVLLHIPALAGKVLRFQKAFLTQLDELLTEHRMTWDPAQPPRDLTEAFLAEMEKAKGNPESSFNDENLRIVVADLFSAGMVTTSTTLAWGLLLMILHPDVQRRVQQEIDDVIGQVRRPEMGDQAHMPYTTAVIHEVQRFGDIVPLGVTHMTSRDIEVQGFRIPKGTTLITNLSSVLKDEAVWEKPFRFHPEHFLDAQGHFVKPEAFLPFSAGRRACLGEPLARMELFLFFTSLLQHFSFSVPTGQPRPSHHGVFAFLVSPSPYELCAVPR

[14] = target: T4, Sentrin-specific protease 1 (Homo sapiens, UniProt Q9P0U3); experiment: Dose response confirmation of small molecule inhibitors of the catalytic domain of the SUMO protease, SENP1 in a FRET assay.; type: functional; details: read-out: IC50_Mean
T4 sequence (Q9P0U3 whole entry): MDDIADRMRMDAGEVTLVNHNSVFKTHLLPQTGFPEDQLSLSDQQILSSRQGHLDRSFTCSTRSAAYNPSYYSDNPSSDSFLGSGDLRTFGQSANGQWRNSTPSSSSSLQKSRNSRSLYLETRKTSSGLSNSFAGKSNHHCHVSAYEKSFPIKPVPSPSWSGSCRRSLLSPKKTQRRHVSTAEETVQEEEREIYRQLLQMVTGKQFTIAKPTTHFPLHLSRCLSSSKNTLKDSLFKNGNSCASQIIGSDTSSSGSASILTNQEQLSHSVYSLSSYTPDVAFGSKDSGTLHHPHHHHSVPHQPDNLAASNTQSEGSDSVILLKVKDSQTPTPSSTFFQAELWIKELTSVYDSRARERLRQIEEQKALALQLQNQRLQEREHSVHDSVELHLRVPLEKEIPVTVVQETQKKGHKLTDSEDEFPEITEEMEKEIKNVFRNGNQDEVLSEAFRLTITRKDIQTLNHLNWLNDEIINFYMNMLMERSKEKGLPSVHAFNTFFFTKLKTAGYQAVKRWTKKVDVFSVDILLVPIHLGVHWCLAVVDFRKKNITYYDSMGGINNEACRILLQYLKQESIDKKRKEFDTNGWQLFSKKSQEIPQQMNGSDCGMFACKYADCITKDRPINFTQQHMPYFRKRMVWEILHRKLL

[15] = target: T4, Sentrin-specific protease 1; experiment: SENP1 catalytic domain blockers, concentration series – biochemical, kinetic FRET, dose response (AID 651697); type: functional; details: read-out: IC50_Mean
[16] = target: T5, Endoribonuclease toxin MazF (Escherichia coli K-12, UniProt P0AE70); experiment: substrate-only fluorescence increase artefacts – biochemical, single-stranded RNase substrate, counter-screen for MazEF activator project, dose response (AID 588502); type: functional
T5 sequence (P0AE70 whole entry): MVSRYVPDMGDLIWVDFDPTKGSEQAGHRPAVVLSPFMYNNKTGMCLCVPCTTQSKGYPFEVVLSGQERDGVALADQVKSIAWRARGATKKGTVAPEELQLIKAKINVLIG

[17] = target: T6, Zinc finger protein mex-5 (Caenorhabditis elegans, UniProt Q9XUB2); experiment: potency of MEX-5 RNA-binding blockers – biochemical, C. elegans, fluorescence polarization, dose response (AID 1960)
T6 sequence (Q9XUB2 whole entry): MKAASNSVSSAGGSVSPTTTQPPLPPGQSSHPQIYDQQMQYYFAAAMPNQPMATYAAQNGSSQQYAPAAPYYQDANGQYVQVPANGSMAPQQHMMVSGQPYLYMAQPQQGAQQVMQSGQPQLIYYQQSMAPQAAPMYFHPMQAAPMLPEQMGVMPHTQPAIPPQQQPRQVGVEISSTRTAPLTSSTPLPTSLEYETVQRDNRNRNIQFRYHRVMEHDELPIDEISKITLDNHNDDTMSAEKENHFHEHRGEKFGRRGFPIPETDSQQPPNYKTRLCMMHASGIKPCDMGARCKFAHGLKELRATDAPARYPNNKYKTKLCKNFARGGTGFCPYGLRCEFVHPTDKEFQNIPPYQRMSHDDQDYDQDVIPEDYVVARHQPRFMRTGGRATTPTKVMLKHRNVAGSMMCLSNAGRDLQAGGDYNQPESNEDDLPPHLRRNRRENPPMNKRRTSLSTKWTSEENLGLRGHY

[18] = target: T5, Endoribonuclease toxin MazF; experiment: activation of MazEF endoribonuclease cleavage – biochemical, fluorescence, single-stranded RNA substrate, uHTS hits, dose response (AID 588481); type: functional
[19] = target: T7, RNA-binding protein pos-1 (Caenorhabditis elegans, UniProt G5EF15); experiment: disruptors of C. elegans POS-1 RNA interaction – biochemical, fluorescence polarization, dose response (AID 1964);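 also: purified POS-1 fused to maltose binding protein made in E. coli; potency of compounds blocking POS-1 binding to fluorescent RNA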
T7 sequence (G5EF15 whole entry): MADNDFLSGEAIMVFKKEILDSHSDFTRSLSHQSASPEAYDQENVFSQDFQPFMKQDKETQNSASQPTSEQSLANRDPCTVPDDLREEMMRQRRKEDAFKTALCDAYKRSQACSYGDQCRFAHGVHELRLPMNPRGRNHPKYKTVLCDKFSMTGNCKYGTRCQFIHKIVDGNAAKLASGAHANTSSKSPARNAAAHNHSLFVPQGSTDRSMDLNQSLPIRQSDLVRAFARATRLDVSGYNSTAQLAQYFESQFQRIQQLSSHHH

[20] = activation of miR-122 Renilla sensor silencing – cell-based, Huh7 psiCHECK-miR122, Renilla luciferase, cherry-picked, dose response (AID 651956); type: functional;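 also: huh7 hepatoma cells stably carrying a psiCHECK-2 miR-122 sensor plasmid; renilla luciferase signal reporting endogenous miR-122 activity after 48 h compound exposure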
[21] = target: T8, Aryl hydrocarbon receptor (Homo sapiens, UniProt P35869); details: Potency;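 also: confirmatory quantitative high-throughput screen measuring activation of the AhR signaling pathway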
T8 sequence (P35869 whole entry): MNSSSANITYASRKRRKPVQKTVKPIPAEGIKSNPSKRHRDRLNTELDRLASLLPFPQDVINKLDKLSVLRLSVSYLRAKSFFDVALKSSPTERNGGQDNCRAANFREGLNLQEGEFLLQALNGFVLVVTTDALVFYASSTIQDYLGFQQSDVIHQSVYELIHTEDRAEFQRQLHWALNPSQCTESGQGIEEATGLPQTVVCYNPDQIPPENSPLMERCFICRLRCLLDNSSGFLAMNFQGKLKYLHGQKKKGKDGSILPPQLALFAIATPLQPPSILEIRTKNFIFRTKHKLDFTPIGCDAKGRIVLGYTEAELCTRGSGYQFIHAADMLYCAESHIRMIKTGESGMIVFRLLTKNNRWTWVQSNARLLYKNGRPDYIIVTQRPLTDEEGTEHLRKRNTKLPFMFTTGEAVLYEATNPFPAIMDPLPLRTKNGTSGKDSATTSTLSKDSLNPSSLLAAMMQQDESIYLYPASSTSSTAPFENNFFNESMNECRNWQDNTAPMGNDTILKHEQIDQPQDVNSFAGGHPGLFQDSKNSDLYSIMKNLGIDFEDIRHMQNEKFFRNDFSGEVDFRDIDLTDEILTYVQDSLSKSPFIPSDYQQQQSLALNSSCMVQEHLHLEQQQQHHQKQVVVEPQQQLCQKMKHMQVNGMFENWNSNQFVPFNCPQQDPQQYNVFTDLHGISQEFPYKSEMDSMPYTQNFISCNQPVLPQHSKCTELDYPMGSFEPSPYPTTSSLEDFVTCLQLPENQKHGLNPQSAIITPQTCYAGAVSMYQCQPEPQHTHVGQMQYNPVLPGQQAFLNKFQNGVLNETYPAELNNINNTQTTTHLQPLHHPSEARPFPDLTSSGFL

Cc1cccc(C(=O)Nc2nnc(C3=COCCO3)o2)c1
AC50 [1]: 128 µM (active)

CCN(c1ccccc1)c1nc(C#N)nc(N(CC)c2ccccc2)n1
EC50 [2]: > 53 µM (inactive)
IC50 [3]: 0.723 µM (active)
AC50 [4]: 3.66 µM (active)
IC50 [5]: 6 µM (active)

O=C(OCCNc1nc(-c2ccccc2)nc2ccccc12)c1cccnc1
IC50 [6]: 23.1 µM (inactive)
IC50 [7]: 7.51 µM (active)

O=C(O)c1ccc(N=Nc2c(O)ccc3ncccc23)cc1
IC50 [8]: 3.07 µM (active)
EC50 [9]: 30.9 µM (inactive)
IC50 [10]: > 89.2 µM (inactive)
EC50 [11]: 7.38 µM (active)
EC50 [12]: 6.69 µM (active)

Cc1c(CCO)c(=O)n(-c2ccccc2)n1S(=O)(=O)c1c(Cl)cc(Cl)cc1Cl
AC50 [1]: 76.8 µM (active)
AC50 [13]: 7.94 µM (inconclusive)

NC(=S)c1cc2cc(Br)ccc2oc1=O
IC50 [14]: 3.31 µM (active)
IC50 [15]: 5.2 µM (active)

C=CCN1C(=O)/C(=C2/Sc3ccc(OC)cc3N2CC)SC1=S
EC50 [2]: > 53 µM (inactive)
EC50 [16]: > 99 µM (inactive)
EC50 [17]: > 300 µM (not active)
EC50 [18]: > 99 µM (inactive)
EC50 [19]: > 300 µM (inconclusive)

Cc1ccc(-c2cnc3c(c2)C(=O)N([C@H](C)CO)C[C@@H](C)[C@H](CN(C)CC2CCCCC2)O3)cc1
AC50 [20]: 18.3 µM (active)

O=C(C1CCOCC1)N1[C@H](CO)[C@H]2c3ccccc3NC[C@H]21
AC50 [20]: 30 µM (active)

C1=C/CC/C=C/CC/C=C/CC/1
AC50 [21]: 44.7 µM (inconclusive)

CCOP(=S)(OCC)Oc1ccc2c(C)c(Cl)c(=O)oc2c1 [COUMAPHOS]
AC50 [21]: 0.178 µM (inconclusive)
